From ChEMBL document CHEMBL3885881, “DrugMatrix”

Species on record: Rattus norvegicus
Test: DrugMatrix - Regimen: Daily Repeat
Type: toxicity, organism-based, Sprague-Dawley
Set-up: regimen Daily Repeat, gender Male, age 6-8 weeks
Conditions: in vivo, po, route oral GAVAGE, […]; for ABSOLUTE BASOPHIL / ABSOLUTE EOSINOPHIL / ABSOLUTE LYMPHOCYTE / ABSOLUTE SEGMENTED NEUTROPHIL / BASOPHIL / EOSINOPHIL / ERYTHROCYTE COUNT / HEMATOCRIT / HEMOGLOBIN / LEUKOCYTE COUNT / LYMPHOCYTE / MEAN CORPUSCULAR HEMOGLOBIN / MEAN CORPUSCULAR HEMOGLOBIN CONCENTRATION / MEAN CORPUSCULAR VOLUME / MONOCYTE / NEUTROPHIL / NUCLEATED RED BLOOD CELLS / PLATELET COUNT: tissue Blood; for ALANINE AMINOTRANSFERASE / ALBUMIN / ALKALINE PHOSPHATASE / ASPARTATE AMINOTRANSFERASE / BLOOD UREA NITROGEN / CARBON DIOXIDE / CHLORIDE / CHOLESTEROL / CREATINE PHOSPHOKINASE / CREATININE / GLUCOSE / LACTATE DEHYDROGENASE / LIPASE / PHOSPHORUS / POTASSIUM / SODIUM / TOTAL BILIRUBIN / TOTAL PROTEIN / URIC ACID: tissue Plasma
[1] = 15 mg/kg, 120 h, dose level Low, time 5 day
[2] = 1200 mg/kg, 72 h, dose level High, time 3 day
[3] = 1200 mg/kg, 120 h, dose level High, time 5 day

CCC(C)(C)C(=O)O[C@H]1C[C@@H](C)C=C2C=C[C@H](C)[C@H](CC[C@@H]3C[C@@H](O)CC(=O)O3)[C@H]21 [SIMVASTATIN]
ABSOLUTE BASOPHIL [1]: 0 CELLS/uL
ABSOLUTE EOSINOPHIL [1]: 0 CELLS/uL
ABSOLUTE LYMPHOCYTE [1]: 6051 CELLS/uL
ABSOLUTE SEGMENTED NEUTROPHIL [1]: 802.33 CELLS/uL
BASOPHIL [1]: 0%
EOSINOPHIL [1]: 0%
ERYTHROCYTE COUNT [1]: 5.09 x10E6/uL
HEMATOCRIT [1]: 32.87%
HEMOGLOBIN [1]: 12.87 G/DL
LEUKOCYTE COUNT [1]: 6.93 x10E3/uL
LYMPHOCYTE [1]: 87.67%
MEAN CORPUSCULAR HEMOGLOBIN [1]: 25.33 pg
MEAN CORPUSCULAR HEMOGLOBIN CONCENTRATION [1]: 39.2 G/DL
MEAN CORPUSCULAR VOLUME [1]: 64.63 fL
MONOCYTE [1]: 1%
NEUTROPHIL [1]: 11.33%
NUCLEATED RED BLOOD CELLS [1]: 0 /100WBC
PLATELET COUNT [1]: 1251.33 x10E3/uL
ALANINE AMINOTRANSFERASE [1]: 57.67 u/L
ALBUMIN [1]: 4 G/DL
ALKALINE PHOSPHATASE [1]: 335.33 u/L
ASPARTATE AMINOTRANSFERASE [1]: 77.67 u/L
BLOOD UREA NITROGEN [1]: 14.67 mg/dL
CARBON DIOXIDE [1]: 30.67 mmol/L
CHLORIDE [1]: 99 MEQ/L
CHOLESTEROL [1]: 66.33 mg/dL
CREATINE PHOSPHOKINASE [1]: 168.67 u/L
CREATININE [1]: 0.17 mg/dL
GLUCOSE [1]: 178.67 mg/dL
LACTATE DEHYDROGENASE [1]: 64 u/L
LIPASE [1]: 9.33 u/L
PHOSPHORUS [1]: 11.6 mg/dL
POTASSIUM [1]: 5.71 MEQ/L
SODIUM [1]: 144.13 MEQ/L
TOTAL BILIRUBIN [1]: 0.1 mg/dL
TOTAL PROTEIN [1]: 5.6 G/DL
URIC ACID [1]: 0.67 mg/dL
ABSOLUTE BASOPHIL [2]: 0 CELLS/uL
ABSOLUTE EOSINOPHIL [2]: 0 CELLS/uL
ABSOLUTE LYMPHOCYTE [2]: 6224.67 CELLS/uL
ABSOLUTE SEGMENTED NEUTROPHIL [2]: 3273.67 CELLS/uL
BASOPHIL [2]: 0%
EOSINOPHIL [2]: 0%
ERYTHROCYTE COUNT [2]: 6.06 x10E6/uL
HEMATOCRIT [2]: 37.77%
HEMOGLOBIN [2]: 14.83 G/DL
LEUKOCYTE COUNT [2]: 9.57 x10E3/uL
LYMPHOCYTE [2]: 66%
MEAN CORPUSCULAR HEMOGLOBIN [2]: 24.57 pg
MEAN CORPUSCULAR HEMOGLOBIN CONCENTRATION [2]: 39.27 G/DL
MEAN CORPUSCULAR VOLUME [2]: 62.5 fL
MONOCYTE [2]: 0.67%
NEUTROPHIL [2]: 33.33%
NUCLEATED RED BLOOD CELLS [2]: 0 /100WBC
PLATELET COUNT [2]: 1143.67 x10E3/uL
ALANINE AMINOTRANSFERASE [2]: 323.67 u/L
ALBUMIN [2]: 4.43 G/DL
ALKALINE PHOSPHATASE [2]: 403.67 u/L
ASPARTATE AMINOTRANSFERASE [2]: 291.33 u/L
BLOOD UREA NITROGEN [2]: 12 mg/dL
CARBON DIOXIDE [2]: 33 mmol/L
CHLORIDE [2]: 97.67 MEQ/L
CHOLESTEROL [2]: 46.33 mg/dL
CREATINE PHOSPHOKINASE [2]: 1429 u/L
CREATININE [2]: 0.1 mg/dL
GLUCOSE [2]: 174.33 mg/dL
LACTATE DEHYDROGENASE [2]: 212.33 u/L
LIPASE [2]: 26 u/L
PHOSPHORUS [2]: 7.2 mg/dL
POTASSIUM [2]: 5.3 MEQ/L
SODIUM [2]: 144.93 MEQ/L
TOTAL BILIRUBIN [2]: 0.17 mg/dL
TOTAL PROTEIN [2]: 5.67 G/DL
URIC ACID [2]: 0.5 mg/dL
ABSOLUTE BASOPHIL [3]: 0 CELLS/uL
ABSOLUTE EOSINOPHIL [3]: 0 CELLS/uL
ABSOLUTE LYMPHOCYTE [3]: 2769 CELLS/uL
ABSOLUTE SEGMENTED NEUTROPHIL [3]: 4331 CELLS/uL
BASOPHIL [3]: 0%
EOSINOPHIL [3]: 0%
ERYTHROCYTE COUNT [3]: 6.93 x10E6/uL
HEMATOCRIT [3]: 43.8%
HEMOGLOBIN [3]: 17.4 G/DL
LEUKOCYTE COUNT [3]: 7.1 x10E3/uL
LYMPHOCYTE [3]: 39%
MEAN CORPUSCULAR HEMOGLOBIN [3]: 25.1 pg
MEAN CORPUSCULAR HEMOGLOBIN CONCENTRATION [3]: 39.7 G/DL
MEAN CORPUSCULAR VOLUME [3]: 63.2 fL
MONOCYTE [3]: 0%
NEUTROPHIL [3]: 61%
NUCLEATED RED BLOOD CELLS [3]: 0 /100WBC
PLATELET COUNT [3]: 1317 x10E3/uL
ALANINE AMINOTRANSFERASE [3]: 285 u/L
ALBUMIN [3]: 4.7 G/DL
ALKALINE PHOSPHATASE [3]: 273 u/L
ASPARTATE AMINOTRANSFERASE [3]: 367 u/L
BLOOD UREA NITROGEN [3]: 37 mg/dL
CARBON DIOXIDE [3]: 35 mmol/L
CHLORIDE [3]: 82 MEQ/L
CHOLESTEROL [3]: 103 mg/dL
CREATINE PHOSPHOKINASE [3]: 1419 u/L
CREATININE [3]: 0.1 mg/dL
GLUCOSE [3]: 205 mg/dL
LACTATE DEHYDROGENASE [3]: 510 u/L
LIPASE [3]: 55 u/L
PHOSPHORUS [3]: 9 mg/dL
POTASSIUM [3]: 4.84 MEQ/L
SODIUM [3]: 136.7 MEQ/L
TOTAL BILIRUBIN [3]: 0.2 mg/dL
TOTAL PROTEIN [3]: 6.1 G/DL
URIC ACID [3]: 0.6 mg/dL
